{
  "source": "patent US8664272B2",
  "about": "“Composition and methods for the treatment of myelodysplastic syndrome and acute myeloid leukemia” (Temple University—Of the Commonwealth System of Higher …, priority 2006, dated 2014)",
  "key": {"HL-60 cells": {"test_system": "HL-60 cells", "assay": "Cytotoxicity of drug combinations towards HL-60 cells (WST-1 assay, median-effect analysis)", "format": "cell-based, human", "settings": "single agent, concentrations higher than 500 nM, 72 h", "experimental": "Human promyelocytic leukemia cell line HL-60 were obtained from American Type Culture Collection. The cells were maintained in RPMI 1640 medium supplemented with 10% FBS, penicillin, (50 U/mL), streptomycin, (50 μg/mL). Cell cultures were maintained at 37° C. in 5% CO2 humidified atmosphere. Cells were counted in a hemocytometer, using Trypan blue staining as an indicator of viability.\nThe test compound, or combination of compounds, was added in 50 μL volume into flat-bottom 96-well plates. Control cultures received the same amount of medium without the test compound. HL-60 cells (1×10^6 cells/mL) were suspended in growth medium and dispensed in 50 μL aliquots into the well containing the compound. The plates were incubated at 37° C. (5% CO2) for 72 h. Cytotoxicity was then determined using the WST-1 assay. In the WST-1 assay cell viability is determined by incubating the cells for a further period of 0.5 to 4 h in the presence of the tetrazolium salt 4-(3-(4-iodophenyl)-2-(4-nitrophenyl)-2H-5-tetrazolio]-1,3-benzene disulfonate. In the presence of viable cells, the compound is reduced by mitochondrial dehydrogenases to a fluorescent product. The absorbance was measured against a background control without cell, in a microtiter plate reader (Bio-Tek Instruments, Elx 800) at 450 nm with a reference wavelength of 630 nm. […]"}, "[1]": {"test_system": "myelodysplastic syndrome patients", "settings": "cited from earlier work"}, "HL-60 cell line": {"test_system": "HL-60 cell line", "settings": "cited from earlier work"}, "[2]": {"settings": "subcutaneous 75 mg/m^2/day for 7 days every 4 weeks, phase 3"}},
  "data": [
    {"smiles": "COc1cc(OC)c(/C=C/S(=O)(=O)Cc2ccc(OC)c(NCC(=O)[O-])c2)c(OC)c1.[Na+]", "note": "[Compound A, (E)-2-(5-((2,4,6-trimethoxystyrylsulfonyl)methyl)-2-methoxyphenylamino)acetic acid sodium salt]", "values": [
      {"measurement": "cell death", "setting": "HL-60 cells", "value": "virtually complete cell death"}
    ]},
    {"smiles": "Nc1ncn([C@@H]2O[C@H](CO)[C@@H](O)[C@H]2O)c(=O)n1", "note": "[Azacitidine, 5-azacytidine]", "values": [
      {"measurement": "significant side-effects", "setting": "[1]; clinical trials", "value": "nausea, anemia, thrombocytopenia, vomiting, pyrexia, leukopenia, diarrhea, fatigue, injection site erythema, constipation, neutropenia, and ecchymosis"},
      {"measurement": "patients responded completely", "setting": "[1]; [2]", "value": 5, "unit": "%"},
      {"measurement": "patients responded partially", "setting": "[1]; [2]", "value": 10, "unit": "%"},
      {"measurement": "response rate", "setting": "[1]; [2]", "value": 15, "unit": "%"},
      {"measurement": "apoptosis", "setting": "HL-60 cell line", "value": "induces apoptosis"}
    ]}
  ]
}
